ID50, IC50 and inhibition data for 19 compounds are collected here from ChEMBL document CHEMBL1130791, “Novel HIV-protease inhibitors containing beta-hydroxyether and -thioether dipeptide isostere surrogates: modification of the P3 ligand” (Bioorg Med Chem Lett, 1998).

Structures are written as SMILES. Calls of active or inactive are those of the source. The calls are words filed in the database; no cut-off is given here.

Assay [1] addresses Human immunodeficiency virus type 1 protease (Human immunodeficiency virus 1) (UniProt Q72874). The assay can be described thus: Antiviral activity against the HTLV-III strain of HIV-1 in CEM cell lines. Type of assay: functional, cell-based. The conditions noted are these: CCRF-CEM.
The target in assay [2] is T1, Human immunodeficiency virus type 1 protease (Human immunodeficiency virus 1, UniProt Q72874). The assay can be described thus: Inhibitory activity against HIV-1 protease using scintillation proximity assay (SPA assay).
Assay [3] addresses Human immunodeficiency virus type 1 protease (Human immunodeficiency virus 1) (UniProt Q72874). The assay can be described thus: Inhibitory activity against HIV-1 protease using scintillation proximity assay (SPA assay) at a concentration of 500 nM.
For a further assay, the system named is CCRF-CEM. As to the kind of experiment: Compound was evaluated for antiviral activity against the HTLV-III strain of HIV-1 in CEM cell lines; NA means not active. Particulars: Homo sapiens. The class given is functional, cell-based.
In assay [4] the target is T1, Human immunodeficiency virus type 1 protease. As to the kind of experiment: Inhibitory activity against HIV-1 protease using scintillation proximity assay (SPA assay); NA means not active. On the technique in general: Scintillation proximity formats need no separation of bound from free tracer.

One may read the IC50 as the midpoint of a concentration-inhibition curve. With `CC(C)(C)NC(=O)c1c(OC[C@@H](O)[C@H](Cc2ccccc2)NC(=O)[C@H](CC(N)=O)NC(=O)c2ccc3c(c2)S(=O)(=O)c2ccccc2C3=O)ccc2ccccc12`, the ID50 in assay [1] is 100 nM. Moreover, in assay [2], the 50% inhibitory concentration (IC50) was 60 nM.

In turn, `CC(C)(C)NC(=O)c1ccccc1OC[C@H](O)[C@H](Cc1ccccc1)NC(=O)[C@H](CC(N)=O)NC(=O)c1ccc2c(c1)C(=O)c1ccccc1C2=O` had an ID50 in assay [1] of 2300 nM. The compound also had a half-inhibitory concentration (IC50) in assay [2] of 90 nM.

Usually inhibition stands for the percentage by which the read-out fell short of the control. Read a low inhibition as little suppression. Compound `CC(C)(C)NC(=O)c1ccccc1OC[C@@H](O)[C@H](Cc1ccccc1)NC(=O)[C@H](CC(N)=O)NC(=O)c1nc2ccccc2nc1O` gave an inhibition in assay [3] of 36%. The ID50 entry with CCRF-CEM is “inactive”.

Consider `CC(C)(C)NC(=O)c1ccccc1OC[C@H](O)[C@H](Cc1ccccc1)NC(=O)[C@H](CC(N)=O)NC(=O)c1cc(O)c2ccccc2n1`, for which the ID50 in assay [1] was found to be 11200 nM. The compound also showed an IC50 in assay [2] of 410 nM.

Take `CC(C)(C)NC(=O)c1ccccc1SC[C@H](O)[C@H](Cc1ccccc1)NC(=O)[C@H](CC(N)=O)NC(=O)c1ccc2ccccc2c1`: the ID50 in assay [1] came to 13400 nM. The IC50 in assay [2] worked out at 390 nM.

In the case of `CC(C)(C)NC(=O)c1ccccc1OC[C@H](O)[C@H](Cc1ccccc1)NC(=O)[C@H](CC(N)=O)NC(=O)c1cnc2ccccc2n1`, the ID50 in assay [1] was determined as 610 nM. In assay [2], this compound gave an IC50 of 100 nM.

In turn, `CC(C)(C)NC(=O)c1ccccc1OC[C@@H](O)[C@H](Cc1ccccc1)NC(=O)[C@H](CC(N)=O)NC(=O)c1ccc2c(c1)C(=O)c1ccccc1C2=O` displayed an ID50 in assay [1] of 330 nM. The compound also returned a half-maximal inhibitory concentration (IC50) in assay [2] of 41 nM.

In the case of `CC(C)(C)NC(=O)c1ccccc1OC[C@H](O)[C@H](Cc1ccccc1)NC(=O)[C@H](CC(N)=O)NS(=O)(=O)c1ccc2ccccc2c1`, the ID50 entry with CCRF-CEM was “inactive”.

Regarding `CC(C)(C)NC(=O)c1ccccc1OC[C@@H](O)[C@H](Cc1ccccc1)NC(=O)[C@H](CC(N)=O)NC(=O)c1cnc2ccccc2n1`, the ID50 in assay [1] came out at 630 nM. Moreover, in assay [2], the IC50 is 63 nM.

In assay [1], `CC(C)(C)NC(=O)c1c(OC[C@@H](O)[C@H](Cc2ccccc2)NC(=O)[C@H](CC(N)=O)NC(=O)c2ccc3c(c2)C(=O)c2ccccc2C3=O)ccc2ccccc12` yielded an ID50 of 160 nM. Besides, the IC50 in assay [2] turned out to be 62 nM.

On to `CC(C)(C)NC(=O)c1ccccc1SC[C@H](O)[C@H](Cc1ccccc1)NC(=O)[C@H](CC(N)=O)NC(=O)c1ccccn1`, for which the IC50 result in assay [4] is recorded as “Not Active”.

On to `CC(C)(C)NC(=O)c1ccccc1NC[C@@H](O)[C@H](Cc1ccccc1)NC(=O)[C@H](CC(N)=O)NC(=O)c1ccc2ccccc2n1`, for which inhibition in assay [2] was half-maximal at 94 nM (IC50).

`CC(C)(C)NC(=O)c1ccccc1OC[C@@H](O)[C@H](Cc1ccccc1)NC(=O)[C@H](CC(N)=O)NC(=O)c1ccc2ccccc2n1` had a concentration for half-maximal inhibition (IC50) in assay [2] of 45 nM.

`CC(C)(C)NC(=O)c1ccccc1OC[C@@H](O)[C@H](Cc1ccccc1)NC(=O)[C@H](CC(N)=O)NC(=O)c1cnnc2ccccc12`: the ID50 in assay [1] was 9300 nM. The compound further registered a half-inhibitory concentration (IC50) in assay [2] of 130 nM.

As to `CC(C)(C)NC(=O)c1ccccc1OC[C@H](O)[C@H](Cc1ccccc1)NC(=O)[C@H](CC(N)=O)NC(=O)c1cnnc2ccccc12`, the ID50 in assay [1] stood at 13400 nM. In addition, the midpoint of inhibition in assay [2], the IC50, lay at 500 nM.

In turn, `CC(C)(C)NC(=O)c1ccccc1OC[C@@H](O)[C@H](Cc1ccccc1)NC(=O)[C@H](CC(N)=O)NS(=O)(=O)c1ccc2ccccc2c1` showed an inhibition in assay [3] of 42%. Moreover, the ID50 entry in the assay with CCRF-CEM was “inactive”.

In assay [2], `CC(C)(C)NC(=O)c1ccccc1SC[C@@H](O)[C@H](Cc1ccccc1)NC(=O)[C@H](CC(N)=O)NC(=O)c1ccc2ccccc2n1` registered an IC50 of 90 nM.

In assay [3], `CC(C)(C)NC(=O)c1ccccc1OC[C@H](O)[C@H](Cc1ccccc1)NC(=O)[C@H](CC(N)=O)NC(=O)c1nc2ccccc2nc1O` registered an inhibition of 35%. Also, in assay [1], the ID50 was found to be 10600 nM.

Compound `CC(C)(C)NC(=O)c1ccccc1OC[C@@H](O)[C@H](Cc1ccccc1)NC(=O)[C@H](CC(N)=O)NC(=O)c1ccc2c(c1)S(=O)(=O)c1ccccc1C2=O` had an ID50 in assay [1] of 550 nM. For the same compound, half-maximal inhibition in assay [2] (IC50) was put at 44 nM.
